Experiments:
[1] = target: Thyroid hormone receptor alpha (Rattus norvegicus) (UniProt P63059); experiment: THYROID HORM Eurofins-Panlabs selectivity data (BI); settings: Compound concentration 10.0 uM
[2] = target: T1, Serine/threonine-protein kinase Sgk1 (Homo sapiens) (UniProt O00141); experiment: SGK Invitrogen selectivity data (BI); settings: Compound concentration 3.0 uM
T1 sequence (whole entry): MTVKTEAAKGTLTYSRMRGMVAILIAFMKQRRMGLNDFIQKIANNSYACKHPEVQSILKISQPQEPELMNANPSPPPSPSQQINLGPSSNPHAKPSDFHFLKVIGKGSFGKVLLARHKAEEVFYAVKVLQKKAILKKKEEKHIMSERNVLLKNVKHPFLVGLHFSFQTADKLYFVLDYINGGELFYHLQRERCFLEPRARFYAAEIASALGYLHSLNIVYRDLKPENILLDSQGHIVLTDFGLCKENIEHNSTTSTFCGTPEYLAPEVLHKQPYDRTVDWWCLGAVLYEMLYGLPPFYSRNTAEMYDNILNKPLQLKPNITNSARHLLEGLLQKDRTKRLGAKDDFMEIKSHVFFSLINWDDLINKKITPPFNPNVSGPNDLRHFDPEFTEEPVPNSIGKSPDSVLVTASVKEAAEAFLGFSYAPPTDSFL

[3] = target: T2, Serine/threonine-protein kinase NLK (Homo sapiens) (UniProt Q9UBE8); experiment: NLK Invitrogen selectivity data (BI); settings: Compound concentration 3.0 uM
T2 sequence (whole entry): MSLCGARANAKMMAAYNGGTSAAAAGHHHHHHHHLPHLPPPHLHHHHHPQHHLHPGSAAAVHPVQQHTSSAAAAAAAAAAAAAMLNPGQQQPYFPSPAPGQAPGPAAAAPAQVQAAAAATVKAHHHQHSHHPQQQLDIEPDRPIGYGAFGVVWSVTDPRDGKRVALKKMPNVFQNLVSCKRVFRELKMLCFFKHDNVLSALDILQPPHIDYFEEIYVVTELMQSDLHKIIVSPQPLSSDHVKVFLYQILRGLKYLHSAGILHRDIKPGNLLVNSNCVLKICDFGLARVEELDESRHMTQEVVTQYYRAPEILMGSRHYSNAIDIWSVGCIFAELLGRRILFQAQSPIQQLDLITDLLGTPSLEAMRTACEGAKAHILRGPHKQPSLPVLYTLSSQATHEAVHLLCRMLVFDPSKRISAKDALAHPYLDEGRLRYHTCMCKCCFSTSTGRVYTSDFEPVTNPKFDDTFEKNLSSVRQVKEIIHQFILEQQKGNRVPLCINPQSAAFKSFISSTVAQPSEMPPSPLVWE

[4] = tested on: Fibroblast growth factor receptor 3 (Homo sapiens), P22607 [K650E]; experiment: FGFR3 K650E Invitrogen selectivity data (BI); settings: Compound concentration 3.0 uM
Fibroblast growth factor receptor 3 (Homo sapiens), P22607 [K650E], sequence (P22607 whole entry K650E): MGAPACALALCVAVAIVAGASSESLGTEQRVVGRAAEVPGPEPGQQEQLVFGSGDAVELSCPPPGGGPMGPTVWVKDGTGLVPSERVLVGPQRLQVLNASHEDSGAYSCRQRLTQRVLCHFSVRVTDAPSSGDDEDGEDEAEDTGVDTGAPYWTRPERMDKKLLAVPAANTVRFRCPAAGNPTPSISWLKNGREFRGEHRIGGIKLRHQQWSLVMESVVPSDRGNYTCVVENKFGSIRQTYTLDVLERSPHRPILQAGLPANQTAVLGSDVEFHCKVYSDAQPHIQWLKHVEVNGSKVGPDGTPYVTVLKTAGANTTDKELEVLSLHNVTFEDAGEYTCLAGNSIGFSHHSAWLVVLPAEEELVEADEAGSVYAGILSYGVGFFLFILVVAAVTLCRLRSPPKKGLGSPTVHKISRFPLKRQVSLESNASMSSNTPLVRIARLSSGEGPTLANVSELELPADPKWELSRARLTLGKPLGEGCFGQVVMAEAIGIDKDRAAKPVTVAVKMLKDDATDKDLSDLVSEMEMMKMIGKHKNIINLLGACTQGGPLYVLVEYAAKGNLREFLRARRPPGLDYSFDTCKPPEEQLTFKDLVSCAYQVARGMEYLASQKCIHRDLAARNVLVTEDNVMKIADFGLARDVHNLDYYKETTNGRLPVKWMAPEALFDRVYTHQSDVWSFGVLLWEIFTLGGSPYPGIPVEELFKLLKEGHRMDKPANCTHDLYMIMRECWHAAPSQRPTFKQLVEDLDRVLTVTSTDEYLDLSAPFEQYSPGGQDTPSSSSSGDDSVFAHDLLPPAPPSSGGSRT

[5] = target: Glycogen synthase kinase-3 alpha (Homo sapiens) (UniProt P49840); experiment: GSK3A Invitrogen selectivity data (BI); settings: Compound concentration 3.0 uM
Glycogen synthase kinase-3 alpha (Homo sapiens), sequence (P49840 2-483 limits assumed): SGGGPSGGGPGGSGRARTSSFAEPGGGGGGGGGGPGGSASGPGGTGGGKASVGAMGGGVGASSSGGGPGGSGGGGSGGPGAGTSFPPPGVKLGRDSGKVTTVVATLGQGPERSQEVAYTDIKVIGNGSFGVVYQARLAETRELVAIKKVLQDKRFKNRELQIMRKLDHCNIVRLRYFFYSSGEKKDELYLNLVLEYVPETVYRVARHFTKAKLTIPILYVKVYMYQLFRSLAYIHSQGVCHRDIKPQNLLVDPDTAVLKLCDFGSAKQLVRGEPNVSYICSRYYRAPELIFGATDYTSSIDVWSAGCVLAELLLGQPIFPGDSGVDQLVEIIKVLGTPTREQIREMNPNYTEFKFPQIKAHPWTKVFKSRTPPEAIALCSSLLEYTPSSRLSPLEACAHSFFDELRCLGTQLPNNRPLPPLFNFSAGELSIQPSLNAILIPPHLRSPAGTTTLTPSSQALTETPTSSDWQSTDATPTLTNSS

[6] = target: T3, Serine/threonine-protein kinase Nek1 (Homo sapiens) (UniProt Q96PY6); experiment: NEK1 Invitrogen selectivity data (BI); settings: Compound concentration 3.0 uM
T3 sequence (whole entry): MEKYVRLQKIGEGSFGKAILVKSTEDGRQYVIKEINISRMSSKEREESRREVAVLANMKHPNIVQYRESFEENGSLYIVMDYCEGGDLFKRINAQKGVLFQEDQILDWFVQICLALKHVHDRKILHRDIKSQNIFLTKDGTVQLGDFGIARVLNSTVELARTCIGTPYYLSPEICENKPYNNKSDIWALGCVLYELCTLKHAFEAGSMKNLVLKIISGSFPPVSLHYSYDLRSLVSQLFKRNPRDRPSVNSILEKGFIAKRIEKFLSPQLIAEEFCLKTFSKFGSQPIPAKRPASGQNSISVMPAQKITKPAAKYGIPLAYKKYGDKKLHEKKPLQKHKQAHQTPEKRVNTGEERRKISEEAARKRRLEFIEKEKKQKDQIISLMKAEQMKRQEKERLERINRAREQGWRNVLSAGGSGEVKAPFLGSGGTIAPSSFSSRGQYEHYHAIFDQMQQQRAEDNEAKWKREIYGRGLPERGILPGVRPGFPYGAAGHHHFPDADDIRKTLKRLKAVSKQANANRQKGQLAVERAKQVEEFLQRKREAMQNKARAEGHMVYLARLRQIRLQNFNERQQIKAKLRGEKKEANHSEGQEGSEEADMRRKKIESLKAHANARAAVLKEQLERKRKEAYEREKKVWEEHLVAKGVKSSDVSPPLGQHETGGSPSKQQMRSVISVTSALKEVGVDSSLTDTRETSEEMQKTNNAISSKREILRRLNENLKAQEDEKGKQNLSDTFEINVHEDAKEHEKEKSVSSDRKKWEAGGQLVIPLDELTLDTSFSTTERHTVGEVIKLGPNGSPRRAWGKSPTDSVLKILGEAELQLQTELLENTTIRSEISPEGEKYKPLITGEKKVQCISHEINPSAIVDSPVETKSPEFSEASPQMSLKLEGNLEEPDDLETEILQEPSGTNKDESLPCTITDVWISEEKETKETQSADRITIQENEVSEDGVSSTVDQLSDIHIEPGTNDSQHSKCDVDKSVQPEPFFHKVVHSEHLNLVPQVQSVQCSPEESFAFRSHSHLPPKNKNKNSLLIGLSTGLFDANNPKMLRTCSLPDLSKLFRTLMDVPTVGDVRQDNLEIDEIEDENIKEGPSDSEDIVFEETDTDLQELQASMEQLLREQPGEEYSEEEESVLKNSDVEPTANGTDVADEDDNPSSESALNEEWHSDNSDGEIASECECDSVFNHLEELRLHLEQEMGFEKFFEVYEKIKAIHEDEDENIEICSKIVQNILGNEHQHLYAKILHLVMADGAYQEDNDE

[7] = target: Glucagon receptor (Homo sapiens) (UniProt P47871); experiment: GLUCAGONH_AGON Cerep selectivity data (BI); settings: filed as agonist, Compound concentration 20.0 uM
Glucagon receptor (Homo sapiens), sequence (P47871 whole entry): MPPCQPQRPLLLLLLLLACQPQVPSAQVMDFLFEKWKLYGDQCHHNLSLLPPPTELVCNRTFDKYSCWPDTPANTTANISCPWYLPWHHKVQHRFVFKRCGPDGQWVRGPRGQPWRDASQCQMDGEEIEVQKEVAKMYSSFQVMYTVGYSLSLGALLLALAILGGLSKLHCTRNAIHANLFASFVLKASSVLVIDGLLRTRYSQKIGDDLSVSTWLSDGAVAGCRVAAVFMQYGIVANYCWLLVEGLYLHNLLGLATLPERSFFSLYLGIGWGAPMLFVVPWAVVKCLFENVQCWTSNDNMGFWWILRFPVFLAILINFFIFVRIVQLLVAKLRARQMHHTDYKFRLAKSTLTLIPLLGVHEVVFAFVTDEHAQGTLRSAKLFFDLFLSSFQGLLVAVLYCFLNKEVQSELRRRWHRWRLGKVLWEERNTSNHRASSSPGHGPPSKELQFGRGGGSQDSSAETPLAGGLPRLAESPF

[8] = target: Cyclin-dependent kinase 7 (Homo sapiens) (UniProt P50613); experiment: CDK7CYCLIN Invitrogen selectivity data (BI); settings: Compound concentration 3.0 uM
Cyclin-dependent kinase 7 (Homo sapiens), sequence (P50613 whole entry): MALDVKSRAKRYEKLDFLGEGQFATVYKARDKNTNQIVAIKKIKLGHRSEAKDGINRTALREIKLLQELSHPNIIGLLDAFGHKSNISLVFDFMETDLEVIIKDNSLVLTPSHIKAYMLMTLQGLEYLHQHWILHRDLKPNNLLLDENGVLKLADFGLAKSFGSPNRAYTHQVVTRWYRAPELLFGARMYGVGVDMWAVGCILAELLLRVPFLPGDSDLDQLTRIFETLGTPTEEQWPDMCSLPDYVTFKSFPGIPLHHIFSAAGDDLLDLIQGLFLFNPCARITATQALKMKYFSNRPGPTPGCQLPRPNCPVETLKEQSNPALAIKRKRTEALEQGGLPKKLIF

[9] = target: cGMP-dependent 3',5'-cyclic phosphodiesterase (Homo sapiens) (UniProt O00408); experiment: PDE2A1 Cerep selectivity data (BI); settings: Compound concentration 20.0 uM
cGMP-dependent 3',5'-cyclic phosphodiesterase (Homo sapiens), sequence (O00408 whole entry): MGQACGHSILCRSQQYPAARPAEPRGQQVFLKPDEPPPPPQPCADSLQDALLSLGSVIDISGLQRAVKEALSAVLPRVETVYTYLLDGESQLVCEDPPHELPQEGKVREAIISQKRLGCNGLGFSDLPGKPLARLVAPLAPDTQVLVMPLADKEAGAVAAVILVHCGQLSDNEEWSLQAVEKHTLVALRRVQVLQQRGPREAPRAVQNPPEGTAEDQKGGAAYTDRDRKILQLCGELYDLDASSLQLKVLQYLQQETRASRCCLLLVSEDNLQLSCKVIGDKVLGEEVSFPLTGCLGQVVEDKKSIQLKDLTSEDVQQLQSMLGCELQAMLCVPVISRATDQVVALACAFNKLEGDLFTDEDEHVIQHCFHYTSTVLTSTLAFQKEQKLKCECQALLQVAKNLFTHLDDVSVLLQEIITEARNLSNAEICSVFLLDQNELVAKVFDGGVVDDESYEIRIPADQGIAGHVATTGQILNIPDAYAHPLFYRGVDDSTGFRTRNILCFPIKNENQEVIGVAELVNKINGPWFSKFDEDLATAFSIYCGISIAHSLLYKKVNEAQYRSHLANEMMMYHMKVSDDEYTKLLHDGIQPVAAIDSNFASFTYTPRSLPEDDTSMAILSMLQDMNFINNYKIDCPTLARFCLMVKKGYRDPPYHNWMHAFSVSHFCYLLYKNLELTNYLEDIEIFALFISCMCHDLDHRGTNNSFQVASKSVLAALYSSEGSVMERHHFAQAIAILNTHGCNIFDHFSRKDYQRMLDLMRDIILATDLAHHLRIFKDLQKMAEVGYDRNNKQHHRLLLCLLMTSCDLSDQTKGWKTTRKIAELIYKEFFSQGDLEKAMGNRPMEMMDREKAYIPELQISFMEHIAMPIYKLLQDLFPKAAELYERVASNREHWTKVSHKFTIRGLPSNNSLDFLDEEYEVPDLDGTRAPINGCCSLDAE

[10] = target: T4, Mitogen-activated protein kinase 13 (Homo sapiens) (UniProt O15264); experiment: MAPK13 Invitrogen selectivity data (BI); settings: Compound concentration 3.0 uM
T4 sequence (whole entry): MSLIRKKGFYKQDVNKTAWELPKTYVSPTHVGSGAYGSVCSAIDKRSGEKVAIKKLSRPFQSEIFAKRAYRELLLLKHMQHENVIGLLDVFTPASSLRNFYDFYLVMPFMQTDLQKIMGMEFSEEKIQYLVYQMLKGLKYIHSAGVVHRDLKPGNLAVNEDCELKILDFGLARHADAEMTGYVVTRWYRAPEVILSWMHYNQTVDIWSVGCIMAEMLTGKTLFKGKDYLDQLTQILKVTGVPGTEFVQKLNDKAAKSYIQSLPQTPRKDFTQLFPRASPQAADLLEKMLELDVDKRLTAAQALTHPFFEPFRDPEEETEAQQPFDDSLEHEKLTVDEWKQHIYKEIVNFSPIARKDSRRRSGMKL

Measured: residual activity

Thyroid hormone receptor alpha (Rattus norvegicus), sequence (P63059 whole entry): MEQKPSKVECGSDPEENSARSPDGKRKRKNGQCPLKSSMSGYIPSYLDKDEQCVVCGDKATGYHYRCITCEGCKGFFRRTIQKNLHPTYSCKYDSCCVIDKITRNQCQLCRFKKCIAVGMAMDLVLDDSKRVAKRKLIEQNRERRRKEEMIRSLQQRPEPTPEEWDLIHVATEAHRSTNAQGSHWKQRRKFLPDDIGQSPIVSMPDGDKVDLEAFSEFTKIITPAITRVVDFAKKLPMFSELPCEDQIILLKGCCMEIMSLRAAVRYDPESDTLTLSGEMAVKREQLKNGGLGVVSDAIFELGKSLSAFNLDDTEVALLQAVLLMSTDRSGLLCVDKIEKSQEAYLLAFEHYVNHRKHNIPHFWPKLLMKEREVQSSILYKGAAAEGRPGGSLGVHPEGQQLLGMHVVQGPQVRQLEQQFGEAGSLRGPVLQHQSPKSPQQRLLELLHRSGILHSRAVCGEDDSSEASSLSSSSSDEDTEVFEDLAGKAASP

CN(C)C(=O)Cn1cc(-c2nc([C@@](C)(c3ccc(-c4cnc(N)nc4)cc3)C3CC3)no2)cn1 [BI 665915]
inactive: [1] 80% | [2] 99% | [3] 93% | [4] 91% | [5] 96% | [6] 104% | [7] 107% | [8] 100% | [9] 97% | [10] 96.5%
